Laboratory results published in patent US6759420B1, “Arylalkanoyl derivatives, processes for their preparation, their use and pharmaceutical compositions containing them” (Aventis Pharma Deutschland GmbH, priority 1999, dated 2004).
pKi: −log10 of the molar value. Where a name gives a salt, the structure may show the parent alone.

Biological target: factor Xa (Homo sapiens, UniProt P00742)
Test: Factor Xa assay (Test 1a), chromogenic
Assay type: biochemical
Parameters: purchased Enzyme Research Laboratories, Inc; South Bend, Ind
Settings: in vitro factor Xa assay Test 1a; human factor Xa 0.5 nM, substrate S-2765 140 μM, 25° C.; Ki from IC50 corrected for substrate competition
Text: The ability of a compound of formula (I) to inhibit factor Xa, thrombin, plasmin, elastase, and trypsin may be assessed by determining the concentration of compound of formula (I) that inhibits enzyme activity by 50% (IC50). Purified enzymes are used in chromogenic assays. To determine the inhibition constant, the IC50 value is corrected for competition with substrate using the formula:
Ki=IC50×(1/{1+((substrate concentration)/substrate Km)})
where Km is the Michaelis-Menten constant. Y. -C. Chen and W. H. Prusoff, Biochem. Pharmacol. 22: […] (1973), which is incorporated herein by reference.
TBS-PEG buffer (50 mM Tris-Cl, pH 7.8, 200 mM NaCl, 0.05% (w/v) PEG-8000, 0.02% (w/v) NaN3) is used for this assay. The IC50 is determined by combining in appropriate wells of a Costar half-area microtiter plate 25 μl human factor Xa (Enzyme Research Laboratories, Inc.; South Bend, Ind.) in TBS-PEG; 40 μl 10% (v/v) DMSO in TBS-PEG (uninhibited control) or various concentrations of the compound to be tested diluted in 10% (v/v) DMSO in TBS-PEG; and substrate S-2765 (N-benzyloxycarbonyl-D-Arg-Gly-L-Arg-p-nitroanilide; Kabi Pharmacia, Inc.; Franklin Ohio) in TBS-PEG.
The assays are performed by pre-incubating the compound of formula (I) plus enzyme for 10 min, then the assay is initiated by adding substrate to obtain a final volume of 100 μl. The initial velocity of chromogenic substrate hydrolysis is measured by the change in absorbance at 405 nm using a Bio-tek Instruments kinetic plate reader (Ceres UV900HDi) at 25° C. during the linear portion of the time course (usually 1.5 min after addition of substrate). The concentration of inhibitor that causes a 50% decrease in the rate of substrate hydrolysis is predicted by linear regression after plotting the relative rates of hydrolysis (compared to the uninhibited control) versus the log of the compound of formula (I) concentration. The enzyme concentration is 0.5 nM and substrate concentration is 140 μM.

Chain of factor Xa (P00742 235-488 limits assumed): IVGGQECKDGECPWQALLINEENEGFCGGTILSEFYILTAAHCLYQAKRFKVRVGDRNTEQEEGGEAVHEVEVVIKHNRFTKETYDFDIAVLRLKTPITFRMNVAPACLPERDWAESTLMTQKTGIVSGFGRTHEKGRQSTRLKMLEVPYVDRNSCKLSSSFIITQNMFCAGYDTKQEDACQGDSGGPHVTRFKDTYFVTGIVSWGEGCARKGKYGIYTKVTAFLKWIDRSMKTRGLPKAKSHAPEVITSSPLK
Chain of factor Xa (P00742 41-179 limits assumed): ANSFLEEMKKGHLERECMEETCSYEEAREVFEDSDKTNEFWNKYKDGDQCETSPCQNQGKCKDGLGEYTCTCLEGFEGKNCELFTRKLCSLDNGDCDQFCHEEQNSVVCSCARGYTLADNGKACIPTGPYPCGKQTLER

pKi | Compound
8.22 | N=C(N)c1ccc(CC(C(=O)NC(C(=O)NCC2CCN(C(=N)N)CC2)C2CCCCC2)C2CCCCC2)cc1 (single isomer, unassigned; less polar) [Example 113]
7.14 | Cc1ccc(C(Cc2ccc(C(=N)N)cc2)C(=O)NC(C(=O)NCC2CCN(C(=N)N)CC2)C2CCCCC2)cc1 (single isomer, unassigned; less polar) [Example 172]
8.70 | N=C(N)c1ccc(CC(C(=O)NC(C(=O)NCC2CCN(C(=N)N)CC2)C2CCCCC2)c2cccc(Br)c2)cc1 (single isomer, unassigned; less polar) [Example 165]
7.64 | N=C(N)c1ccc(CNC(=O)C(NC(=O)C(Cc2ccc(C(=N)N)cc2)c2cccc(F)c2)C2CCCCC2)cc1 (single isomer, unassigned; less polar) [Example 149]
7.60 | Cc1ccccc1C(Cc1ccc(C(=N)N)cc1)C(=O)NC(C(=O)NCC1CCN(C(=N)N)CC1)C1CCCCC1 (single isomer, unassigned; more polar) [Example 162]
9.00 | CC(=N)N1CCC(CNC(=O)C(NC(=O)C(Cc2ccc(C(=N)N)cc2)c2cccc(Br)c2)C2CCCCC2)CC1 (single isomer, unassigned; less polar) [Example 223]
9.00 | N=C(N)NCCCC(NC(=O)C(NC(=O)C(Cc1ccc(C(=N)N)cc1)c1cccc(Br)c1)C1CCCCC1)C(N)=O (single isomer, unassigned; less polar) [Example 133]
9.00 | Cc1ccccc1C(Cc1ccc(C(=N)N)cc1)C(=O)NC(C(=O)NCC1CCN(C(=N)N)CC1)C1CCCCC1 (single isomer, unassigned; less polar) [Example 163]
7.13 | Cc1cccc(C(Cc2ccc(N)cc2)C(=O)NC(C(=O)NCC2CCN(C(=N)N)CC2)C2CCCCC2)c1 (single isomer, unassigned; less polar) [Example 167]
7.96 | Cc1cccc(C(Cc2ccc(C(=N)N)cc2)C(=O)NC(C(=O)NCC2CCN(C(=N)N)CC2)C2CCCCC2)c1 (single isomer, unassigned; less polar) [Example 159]
6.51 | Cc1ccc(C(Cc2ccc(C(=N)N)cc2)C(=O)NC(C(=O)NCc2ccc(C(=N)N)cc2)C2CCCCC2)cc1 (single isomer, unassigned; less polar) [Example 154]
7.48 | N=C(N)c1ccc(CC(C(=O)NC(C(=O)NCC2CCN(C(=N)N)CC2)C2CCCCC2)c2ccc3ccccc3c2)cc1 (single isomer, unassigned; less polar) [Example 170]
8.10 | N=C(N)c1ccc(CC(C(=O)NC(C(=O)NCC2CCN(C(=N)N)CC2)C2CCCCC2)c2cccc(F)c2)cc1 (single isomer, unassigned; less polar) [Example 161]

The remaining lines, values behind:

Compound | pKi
N=C(N)NCCC[C@H](NC(=O)C(NC(=O)C(Cc1ccc(C(=N)N)cc1)C1CCCCC1)C1CCCCC1)C(=O)NC(c1ccccc1)c1ccccc1 (stereo partly drawn) [Example 195, 2-(S)-2-[3-(4-Carbamimidoyl-phenyl)-2-cyclohexyl-propionylamino]-2-cyclohexyl-acetylamino}-5-guanidino-pentanoic acid benzhydryl-amide trifluoroacetic acid salt] | 7.49
N=C(N)c1ccc(CC(C(=O)N[C@H](C(=O)NCC2CCN(C(=N)N)CC2)C2CCCCC2)c2ccccc2F)cc1 (single isomer, unassigned; less polar) [Example 235] | 7.92
N=C(N)NCCC[C@H](NC(=O)C(NC(=O)C(Cc1ccc(C(=N)N)cc1)C1CCCCC1)C1CCCCC1)C(=O)NCc1ccc(Cl)cc1 (stereo partly drawn) [Example 201, 2-(S)-{2-[3-(4-Carbamimidoyl-phenyl)-2-cyclohexyl-propionylamino]-2-cyclohexyl-acetylamino}-5-guanidino-pentanoic acid 4-chloro-benzylamide trifluoroacetic acid salt] | 7.38
CC(Cc1ccc(C(=N)N)cc1)(C(=O)N[C@H](C(=O)N[C@@H](CCCNC(=N)N)C(N)=O)C1CCCCC1)c1ccccc1 (mixture of isomers) [Example 96, 2-(S)-{2-(S)-[3-(4-Carbamimidoyl-phenyl)-2-(R,S)-methyl-2-phenyl-propionylamino]-2-cyclohexyl-acetylamino}-5-guanidino-pentanoic acid amide trifluoroacetic acid salt] | 8.08
N=C(N)NCCC[C@H](NC(=O)[C@@H](NC(=O)C(Cc1ccc(C(=N)N)cc1)c1ccc2ccccc2c1)C1CCCCC1)C(=O)O (mixture of isomers) [Example 79, 2-(S)-{2-(S)-[3-(4-Carbamimidoyl-phenyl)-2-(R,S)-naphthalen-2-yl-propionyl-amino]-2-cyclohexyl-acetylamino}-5-guanidino-pentanoic acid trifluoroacetic acid salt] | 7.65
N=C(N)c1ccc(CC(C(=O)NC(C(=O)NCCN2C(=O)CNC2=O)C2CCCCC2)C2CCCCC2)cc1 (single isomer, unassigned; less polar) [Example 7] | 5.12
Cc1ccccc1C(Cc1ccc(C(=N)N)cc1)C(=O)N[C@H](C(=O)N[C@@H](CCCNC(=N)N)C(N)=O)C1CCCCC1 (mixture of isomers) [Example 140, 2-(S)-{2-(S)-[3-(4-Carbamimidoyl-phenyl)-2-(R,S)-o-tolyl-propionylamino]-2-cyclohexyl-acetylamino}-5-guanidino-pentanoic acid amide hydrochloric acid salt] | 8.52
CCOC(=O)C(CCCNC(=N)N)NC(=O)C(NC(=O)C(Cc1ccc(C(=N)N)cc1)C1CCCCC1)C1CCCCC1 (single isomer, unassigned; less polar) [Example 5] | 8.30
CCCOC(=O)C(CCCNC(=N)N)NC(=O)C(NC(=O)C(Cc1ccc(C(=N)N)cc1)C1CCCCC1)C1CCCCC1 (single isomer, unassigned; less polar) [Example 189] | 7.70
Cc1ccc(C(Cc2ccc(C(=N)N)cc2)C(=O)NC(C(=O)NCc2ccc(C(=N)N)cc2)C2CCCCC2)cc1 (single isomer, unassigned; more polar) [Example 153] | 5.23
N=C(N)NCCC[C@H](NC(=O)[C@H](Cc1ccc2ccccc2c1)NC(=O)C(Cc1ccc(C(=N)N)cc1)c1ccc2ccccc2c1)C(N)=O (mixture of isomers) [Example 39, 2-(S)-{2-(S)-[3-(4-Carbamimidoyl-phenyl)-2-(R,S)-naphthalen-2-yl-propionyl-amino]-3-naphthalen-2-yl-propionylamino}-5-guanidino-pentanoic acid amide trifluoroacetic acid salt] | 5.54
N=C(N)c1ccc(CC(C(=O)N[C@H](C(=O)NCC2CCN(C(=N)N)CC2)C2CCCCC2)c2ccc(C(F)(F)F)cc2)cc1 (single isomer, unassigned; less polar) [Example 232] | 7.62
CN(Cc1ccccc1)C(=O)[C@H](CCCNC(=N)N)NC(=O)C(NC(=O)C(Cc1ccc(C(=N)N)cc1)C1CCCCC1)C1CCCCC1 (single isomer, unassigned; less polar) [Example 183] | 7.60
N=C(N)NCCC[C@H](NC(=O)[C@@H](NC(=O)C(Cc1ccc(C(=N)N)cc1)c1ccc2ccccc2c1)C1CCCCC1)C(N)=O (mixture of isomers) [Example 95, 2-(S)-{2-(S)-[3-(4-Carbamimidoyl-phenyl)-2-(R,S)-naphthalen-2-yl-propionylamino]-2-cyclohexyl-acetylamino}-5-guanidino-pentanoic acid amide trifluoroacetic acid salt] | 8.04
N=C(N)NCCC[C@H](NC(=O)C(NC(=O)C(Cc1ccc(C(=N)N)cc1)C1CCCCC1)C1CCCCC1)C(=O)NCc1ccncc1 (stereo partly drawn) [Example 194, 2-(S)-{2-[3-(4-Carbamimidoyl-phenyl)-2-cyclohexyl-propionylamino]-2-cyclohexyl-acetylamino}-5-guanidino-pentanoic acid (pyridin-4-ylmethyl)-amide trifluoroacetic acid salt] | 7.47
N=C(N)c1ccc(CNC(=O)[C@@H](NC(=O)C(Cc2ccc(CN)cc2)C2CCCCC2)C2CCCCC2)cc1 (mixture of isomers) [Example 138, 3-(4-Aminomethyl-phenyl)-N-[(S)-(4-carbamimidoyl-benzyl-carbamoyl)-cyclohexyl-methyl]-2-(R,S)-cyclohexyl-propionamide acetic acid salt] | 7.26
